# Read-outs that look alike come from different tables or passages of the source.
# Tests used:
# Test in all cases: Etest MIC of indicator carbapenems on MH II agar without/with PMBN
# Assay type in all cases: cell-based
# [1] = system: E. cloacae 1008074 (VIM producer)
# Method: (§1) The determinations of antibiotic MIC were carried out on solid culture media with the Etest® method. To do this, Etest® strips (bioMérieux, France) were used: • Etest® Imipenem IM 32, and • Etest® Ertapenem ETP 32, and also solid culture media, differing from one another by virtue of their non-inhibitory concentrations of PMBN.
# (§2) These solid culture media are prepared in Petri dishes (0=145 mm; V=50 ml) on a base of MH II Agar (Becton Dickinson®, United States), more or less supplemented with PMBN. The PMBN concentrations range from 0 up to concentrations equivalent to one fifth of the MIC of PMBN (⅕ MICPMBN).
# (§3) Using a swab and the Retro C80™ rota-plater (bioMérieux, France), the culture media were inoculated with the bacteria, originating from an inoculum of 0.5 McFarland, prepared in 0.85% NaCl solution from colonies subcultured the day before on MH II agar.
# (§4) The various Etest® strips are then deposited on the surface of the culture media. After 16 to 20 hours of incubation at 35° C., the MICS were read.
# (§5) By way of indicator carbapenems according to the invention, in addition to imipenem (IM) and ertapenem (ETP), meropenem (MP) was also tested. Like the other two antibiotics, meropenem was used in the form of Etest® strips (Etest® Meropenem MP 32 from the company bioMérieux, France).
# (§6) The methods used to prepare the new culture media and to carry out the antibiotic-sensitivity tests are identical to those described above.
# [2] = system: K. pneumoniae 1204036 (membrane impermeability)
# Method: as §1, §2, §3, §4, §5, §6
# [3] = system: E. cloacae 1109137 (OXA-48 producer)
# Method: as §1, §2, §3, §4, §5, §6
# [4] = system: K. pneumoniae KP 63 (porin−); conditions: Klebsiella pneumoniae
# Method: as §1, §2, §3, §4, §5, §6
# [5] = system: E. cloacae 1008080 (IMP producer); conditions: in µg/mL
# Method: as §1, §2, §3, §4, §5, §6
# [6] = system: K. pneumoniae KP 55 (porin−); conditions: Klebsiella pneumoniae
# Method: as §1, §2, §3, §4, §5, §6
# [7] = system: K. pneumoniae 1002015
# Method: as §1, §2, §3, §4
# (§7) To do this, imipenem and ertapenem were used as indicator carbapenems. Non-inhibitory concentrations of PMBN, equivalent to concentrations of one tenth ( 1/10), one eighth (⅛) and one fifth (⅕) of the MIC of PMBN, were applied.
# (§8) In the light of the MICPMBN values previously identified, very predominantly much higher than 300 μg/ml, the following standard concentrations were retained and applied to the bacterial strains to be tested: 50, 100, 150, 200 and 300 μg/ml.
# as §5, §6
# [8] = system: E. aerogenes 1204048; conditions: in µg/mL
# Method: as §1, §2, §3, §4, §7, §8, §5, §6
# [9] = system: E. aerogenes 9306071
# Method: as §1, §2, §3, §4, §7, §8, §5, §6
# [10] = system: E. coli 1204043
# Method: as §1, §2, §3, §4, §7, §8, §5, §6
# [11] = system: K. pneumoniae 1204034
# Method: as §1, §2, §3, §4, §7, §8, §5, §6
# [12] = system: E. aerogenes 9203076
# Method: as §1, §2, §3, §4, §7, §8, §5, §6
# [13] = system: E. cloacae 9402034
# Method: as §1, §2, §3, §4, §7, §8, §5, §6
compound,measurement,setting,value
"C[C@@H](O)[C@H]1C(=O)N2C(C(=O)O)=C(S[C@@H]3CN[C@H](C(=O)Nc4cccc(C(=O)O)c4)C3)[C@H](C)[C@H]12 [ETP, ertapenem]",MIC,"[1]; [PMBN] 0, Table 4a",0.38 µg/mL
same,MIC,"[1]; [PMBN] 100, Table 4a",0.5 µg/mL
same,MIC,"[1]; [PMBN] 200, Table 4a",0.5 µg/mL
same,MIC,"[1]; [PMBN] 300, Table 4a",0.5 µg/mL
same,MIC,"[2]; [PMBN] 0, Table 4a",> 32 µg/mL
same,MIC,"[2]; [PMBN] 100, Table 4a",> 32 µg/mL
same,MIC,"[2]; [PMBN] 200, Table 4a",> 32 µg/mL
same,MIC,"[2]; [PMBN] 300, Table 4a",> 32 µg/mL
same,MIC,"[3]; [PMBN] 0, Table 4a",24 µg/mL
same,MIC,"[3]; [PMBN] 200, Table 4a",12 µg/mL
same,MIC,"[3]; [PMBN] 300, Table 4a",> 32 µg/mL
same,MIC,[4]; [PMBN] 0,1 µg/mL
same,MIC,[4]; [PMBN] 50 μg/ml,0.5 µg/mL
same,MIC,[4]; [PMBN] 100 μg/ml,0.38 µg/mL
same,MIC,[4]; [PMBN] 150 μg/ml,0.19 µg/mL
same,MIC,[4]; [PMBN] 200 μg/ml,0.125 µg/mL
same,MIC,"[5]; [PMBN] 0, Table 4a",16
same,MIC,"[5]; [PMBN] 100, Table 4a",24
same,MIC,"[5]; [PMBN] 200, Table 4a",>32
same,MIC,"[5]; [PMBN] 300, Table 4a",12-24
same,MIC,[6]; [PMBN] 0,0.38 µg/mL
same,MIC,[6]; [PMBN] 50 μg/ml,0.25 µg/mL
same,MIC,[6]; [PMBN] 100 μg/ml,0.19 µg/mL
same,MIC,[6]; [PMBN] 150 μg/ml,0.125 µg/mL
same,MIC,[6]; [PMBN] 200 μg/ml,0.064 µg/mL
same,MIC,"[7]; K. pneumoniae 1002015, [PMBN] 0, Table 3",32 µg/mL
same,MIC,"[7]; K. pneumoniae 1002015, [PMBN] MIC/5",1 µg/mL
same,MIC,"[7]; K. pneumoniae 1002015, [PMBN] MIC/8",2 µg/mL
same,MIC,"[7]; K. pneumoniae 1002015, [PMBN] MIC/10",4 µg/mL
same,MIC,"[7]; Klebsiella pneumoniae, 1002015, K. pneumoniae 1002015 (porin−), [PMBN] 0, Table 4, read-out: MIC",4 µg/mL
same,MIC,"[7]; Klebsiella pneumoniae, 1002015, K. pneumoniae 1002015 (porin−), [PMBN] 150 μg/ml, Table 4, read-out: MIC",0.5 µg/mL
same,MIC,"[7]; Klebsiella pneumoniae, 1002015, K. pneumoniae 1002015 (porin−), [PMBN] 200 μg/ml, Table 4, read-out: MIC",0.38 µg/mL
same,MIC,"[8]; E. aerogenes 1204048 (membrane impermeability), [PMBN] 0, Table 4a",>32
same,MIC,"[8]; E. aerogenes 1204048 (membrane impermeability), [PMBN] 100, Table 4a",16
same,MIC,"[8]; E. aerogenes 1204048 (membrane impermeability), [PMBN] 200, Table 4a",16
same,MIC,"[8]; E. aerogenes 1204048 (membrane impermeability), [PMBN] 300, Table 4a",8
same,MIC,"[8]; E. aerogenes 1204048, [PMBN] 0, Table 3",32
same,MIC,"[8]; E. aerogenes 1204048, [PMBN] MIC/5",2
same,MIC,"[8]; E. aerogenes 1204048, [PMBN] MIC/8",2
same,MIC,"[8]; E. aerogenes 1204048, [PMBN] MIC/10",4
same,MIC,"[9]; E. aerogenes 9306071 (membrane impermeability), [PMBN] 0, Table 4a",> 32 µg/mL
same,MIC,"[9]; E. aerogenes 9306071 (membrane impermeability), [PMBN] 100, Table 4a",12 µg/mL
same,MIC,"[9]; E. aerogenes 9306071 (membrane impermeability), [PMBN] 200, Table 4a",8 µg/mL
same,MIC,"[9]; E. aerogenes 9306071 (membrane impermeability), [PMBN] 300, Table 4a",4 µg/mL
same,MIC,"[9]; E. aerogenes 9306071, [PMBN] 0, Table 3",32 µg/mL
same,MIC,"[9]; E. aerogenes 9306071, [PMBN] MIC/5",4 µg/mL
same,MIC,"[9]; E. aerogenes 9306071, [PMBN] MIC/8",4 µg/mL
same,MIC,"[9]; E. aerogenes 9306071, [PMBN] MIC/10",4 µg/mL
same,MIC,"[10]; E. coli 1204043 (membrane impermeability), [PMBN] 0, Table 4a, in µg/mL",>32
same,MIC,"[10]; E. coli 1204043 (membrane impermeability), [PMBN] 100, Table 4a, in µg/mL",6
same,MIC,"[10]; E. coli 1204043 (membrane impermeability), [PMBN] 200, Table 4a, in µg/mL",2-4
same,MIC,"[10]; E. coli 1204043 (membrane impermeability), [PMBN] 300, Table 4a, in µg/mL",1.5
same,MIC,"[10]; E. coli 1204043, [PMBN] 0, Table 3, in µg/mL",32
same,MIC,"[10]; E. coli 1204043, [PMBN] MIC/5, in µg/mL",1
same,MIC,"[10]; E. coli 1204043, [PMBN] MIC/8, in µg/mL",2
same,MIC,"[10]; E. coli 1204043, [PMBN] MIC/10, in µg/mL",1
same,MIC,"[10]; Escherichia coli, 1204043, E. coli 1204043 (porin−), [PMBN] 0, Table 4, read-out: MIC",> 32 µg/mL
same,MIC,"[10]; Escherichia coli, 1204043, E. coli 1204043 (porin−), [PMBN] 150 μg/ml, Table 4, read-out: MIC",0.38 µg/mL
same,MIC,"[10]; Escherichia coli, 1204043, E. coli 1204043 (porin−), [PMBN] 200 μg/ml, Table 4, read-out: MIC",0.19 µg/mL
same,MIC,"[11]; K. pneumoniae 1204034 (membrane impermeability), [PMBN] 0, Table 4a",> 32 µg/mL
same,MIC,"[11]; K. pneumoniae 1204034 (membrane impermeability), [PMBN] 100, Table 4a",12 µg/mL
same,MIC,"[11]; K. pneumoniae 1204034 (membrane impermeability), [PMBN] 200, Table 4a",3 µg/mL
same,MIC,"[11]; K. pneumoniae 1204034 (membrane impermeability), [PMBN] 300, Table 4a",2 µg/mL
same,MIC,"[11]; K. pneumoniae 1204034, [PMBN] 0, Table 3",64 µg/mL
same,MIC,"[11]; K. pneumoniae 1204034, [PMBN] MIC/5",4 µg/mL
same,MIC,"[11]; K. pneumoniae 1204034, [PMBN] MIC/8",4 µg/mL
same,MIC,"[11]; K. pneumoniae 1204034, [PMBN] MIC/10",8 µg/mL
same,MIC,"[11]; Klebsiella pneumoniae, 1204034, K. pneumoniae 1204034 (porin−), [PMBN] 0, Table 4, read-out: MIC",> 32 µg/mL
same,MIC,"[11]; Klebsiella pneumoniae, 1204034, K. pneumoniae 1204034 (porin−), [PMBN] 150 μg/ml, Table 4, read-out: MIC",1.5 µg/mL
same,MIC,"[11]; Klebsiella pneumoniae, 1204034, K. pneumoniae 1204034 (porin−), [PMBN] 200 μg/ml, Table 4, read-out: MIC",1 µg/mL
same,MIC,"[12]; E. aerogenes 9203076 (membrane impermeability), [PMBN] 0, Table 4a, in µg/mL",>32
same,MIC,"[12]; E. aerogenes 9203076 (membrane impermeability), [PMBN] 100, Table 4a, in µg/mL",16
same,MIC,"[12]; E. aerogenes 9203076 (membrane impermeability), [PMBN] 200, Table 4a, in µg/mL",12
same,MIC,"[12]; E. aerogenes 9203076 (membrane impermeability), [PMBN] 300, Table 4a, in µg/mL",4
same,MIC,"[12]; E. aerogenes 9203076, [PMBN] 0, Table 3, in µg/mL",32
same,MIC,"[12]; E. aerogenes 9203076, [PMBN] MIC/5, in µg/mL",2
same,MIC,"[12]; E. aerogenes 9203076, [PMBN] MIC/8, in µg/mL",4
same,MIC,"[12]; E. aerogenes 9203076, [PMBN] MIC/10, in µg/mL",4
same,MIC,"[12]; Klebsiella aerogenes, 9203076, E. aerogenes 9203076 (porin−), [PMBN] 0, Table 4, read-out: MIC",24 µg/mL
same,MIC,"[12]; Klebsiella aerogenes, 9203076, E. aerogenes 9203076 (porin−), [PMBN] 150 μg/ml, Table 4, read-out: MIC",3 µg/mL
same,MIC,"[12]; Klebsiella aerogenes, 9203076, E. aerogenes 9203076 (porin−), [PMBN] 200 μg/ml, Table 4, read-out: MIC",1.5 µg/mL
same,MIC,"[13]; E. cloacae 9402034 (membrane impermeability), [PMBN] 0, Table 4a",> 32 µg/mL
same,MIC,"[13]; E. cloacae 9402034 (membrane impermeability), [PMBN] 100, Table 4a",> 32 µg/mL
same,MIC,"[13]; E. cloacae 9402034 (membrane impermeability), [PMBN] 200, Table 4a",12 µg/mL
same,MIC,"[13]; E. cloacae 9402034 (membrane impermeability), [PMBN] 300, Table 4a",12 µg/mL
same,MIC,"[13]; E. cloacae 9402034, [PMBN] 0, Table 3",64 µg/mL
same,MIC,"[13]; E. cloacae 9402034, [PMBN] MIC/5",16 µg/mL
same,MIC,"[13]; E. cloacae 9402034, [PMBN] MIC/8",16 µg/mL
same,MIC,"[13]; E. cloacae 9402034, [PMBN] MIC/10",16 µg/mL

# — patent US20180155757A1, “IDENTIFICATION OF BACTERIA THAT ARE RESISTANT TO CARBAPENEMS BY MEMBRANE IMPERVIOUSNESS” (BIOMÉRIEUX, priority 2015, published 2018)
